According to ChEMBL document CHEMBL1156987, “Novel azalides derived from 16-membered macrolides. III. Azalides modified at the C-15 and 4'' positions: Improved antibacterial activities” (Bioorg Med Chem, 2010):
Values after ≈ are worked out from the molar mass of the structure shown.

Columns and labels:
[1] = system: Streptococcus pneumoniae; experiment: Antibacterial activity against Streptococcus pneumoniae 6 expressing constitutive ermB methylase and mefA after 20 hrs by agar dilution method; format: functional; conditions: Streptococcus pneumoniae, 6, 20 h
[2] = system: Streptococcus pyogenes; experiment: Antibacterial activity against Streptococcus pyogenes 2 expressing constitutive ermB methylase after 20 hrs by agar dilution method; format: functional; conditions: Streptococcus pyogenes, 2, 20 h
[3] = system: Streptococcus pneumoniae; experiment: Antibacterial activity against Streptococcus pneumoniae DP1 type 1 after 20 hrs by agar dilution method; format: functional; conditions: DP1 type1, 20 h
[4] = system: Streptococcus pneumoniae; experiment: Antibacterial activity against Streptococcus pneumoniae 11 expressing mefA efflux pump after 20 hrs by agar dilution method; format: functional; conditions: Streptococcus pneumoniae, 11, 20 h
[5] = system: Streptococcus pneumoniae; experiment: Antibacterial activity against Streptococcus pneumoniae 10 expressing mefA efflux pump after 20 hrs by agar dilution method; format: functional; conditions: Streptococcus pneumoniae, 10, 20 h
[6] = system: Streptococcus pyogenes; experiment: Antibacterial activity against Streptococcus pyogenes 3 expressing mefA efflux pump after 20 hrs by agar dilution method; format: functional; conditions: Streptococcus pyogenes, 3, 20 h
[7] = system: Streptococcus pneumoniae; experiment: Antibacterial activity against Streptococcus pneumoniae 7 expressing constitutive ermB methylase after 20 hrs by agar dilution method; format: functional; conditions: Streptococcus pneumoniae, 7, 20 h
[8] = system: Staphylococcus aureus; experiment: Antibacterial activity against Staphylococcus aureus 209P JC1 after 20 hrs by agar dilution method; format: functional; conditions: 209P JC1, 20 h
[9] = system: Streptococcus pyogenes; experiment: Antibacterial activity against Streptococcus pyogenes Cook after 20 hrs by agar dilution method; format: functional
[10] = system: Streptococcus pneumoniae; experiment: Antibacterial activity against Streptococcus pneumoniae 5 expressing constitutive ermB methylase after 20 hrs by agar dilution method; format: functional; conditions: Streptococcus pneumoniae, 5, 20 h
[11] = system: Haemophilus influenzae; experiment: Antibacterial activity against Haemophilus influenzae 3 after 20 hrs by agar dilution method; format: functional; conditions: Haemophilus influenzae, 3, 20 h
[12] = Metabolic stability at human liver S9 fraction assessed as compound remaining after 1 hr; format: ADME, subcellular; conditions: read-out: Stability
[13] = system: Streptococcus pneumoniae; experiment: Antibacterial activity against Streptococcus pneumoniae 8 expressing inducible ermB methylase after 20 hrs by agar dilution method; format: functional; conditions: Streptococcus pneumoniae, 8, 20 h
[14] = system: Haemophilus influenzae; experiment: Antibacterial activity against Haemophilus influenzae 1 after 20 hrs by agar dilution method; format: functional; conditions: Haemophilus influenzae, 1, 20 h
[15] = system: Haemophilus influenzae; experiment: Antibacterial activity against Haemophilus influenzae 2 after 20 hrs by agar dilution method; format: functional; conditions: Haemophilus influenzae, 2, 20 h
[16] = system: Streptococcus pneumoniae; experiment: Antibacterial activity against Streptococcus pneumoniae 9 expressing inducible ermB methylase after 20 hrs by agar dilution method; format: functional; conditions: Streptococcus pneumoniae, 9, 20 h

SMILES | MIC [1] | MIC [2] | MIC [3] | MIC [4] | MIC [5] | MIC [6] | MIC [7] | MIC [8] | MIC [9] | MIC [10] | MIC [11] | remaining at 1 h [12] | MIC [13] | MIC [14] | MIC [15] | MIC [16]
CCNC(=O)O[C@H]1[C@H](C)O[C@@H](O[C@H]2[C@H](N(C)C)[C@@H](O)[C@H](O[C@H]3[C@@H](CC=O)C[C@@H](C)[C@@H](O)CN(C)CCC[C@H](C/C=C/c4cnc5ccccc5c4)OC(=O)C[C@@H](OC(=O)CC)[C@@H]3OC)O[C@@H]2C)C[C@@]1(C)OC(=O)CC | 16 µg/mL (≈ 15.1 µM) | 32 µg/mL (≈ 30.3 µM) | 0.015 µg/mL (≈ 0.0142 µM) | 0.015 µg/mL (≈ 0.0142 µM) | 0.015 µg/mL (≈ 0.0142 µM) | 0.13 µg/mL (≈ 0.123 µM) | 16 µg/mL (≈ 15.1 µM) | 0.25 µg/mL (≈ 0.236 µM) | 0.06 µg/mL (≈ 0.0567 µM) | 16 µg/mL (≈ 15.1 µM) | 16 µg/mL (≈ 15.1 µM) | 79% | 0.13 µg/mL (≈ 0.123 µM) | 8 µg/mL (≈ 7.57 µM) | 16 µg/mL (≈ 15.1 µM) | 0.25 µg/mL (≈ 0.236 µM)
CCC(=O)O[C@@H]1CC(=O)O[C@@H](C/C=C/c2cnc3ccccc3c2)CCCN(C)C[C@H](O)[C@H](C)C[C@H](CC=O)[C@H](O[C@@H]2O[C@H](C)[C@@H](O[C@H]3C[C@@](C)(OC(=O)CC)[C@@H](OC(=O)NC)[C@H](C)O3)[C@H](N(C)C)[C@H]2O)[C@H]1OC | 32 µg/mL (≈ 30.7 µM) | > 32 µg/mL | < 0.008 µg/mL | 0.03 µg/mL (≈ 0.0288 µM) | 0.015 µg/mL (≈ 0.0144 µM) | 0.06 µg/mL (≈ 0.0575 µM) | 32 µg/mL (≈ 30.7 µM) | 0.25 µg/mL (≈ 0.24 µM) | 0.06 µg/mL (≈ 0.0575 µM) | 32 µg/mL (≈ 30.7 µM) | 8 µg/mL (≈ 7.67 µM) | 78% | 0.25 µg/mL (≈ 0.24 µM) | 4 µg/mL (≈ 3.83 µM) | 8 µg/mL (≈ 7.67 µM) | 0.5 µg/mL (≈ 0.479 µM)
CCC(=O)O[C@@H]1CC(=O)O[C@@H](C/C=C/c2cnc3ccccc3c2)CCCN(C)C[C@H](O)[C@H](C)C[C@H](CC=O)[C@H](O[C@@H]2O[C@H](C)[C@@H](O[C@H]3C[C@@](C)(O)[C@@H](OC(=O)CC)[C@H](C)O3)[C@H](N(C)C)[C@H]2O)[C@H]1OC | 128 µg/mL (≈ 130 µM) | > 128 µg/mL | 0.015 µg/mL (≈ 0.0152 µM) | 0.03 µg/mL (≈ 0.0304 µM) | 0.06 µg/mL (≈ 0.0608 µM) | 0.5 µg/mL (≈ 0.507 µM) | 128 µg/mL (≈ 130 µM) | 0.5 µg/mL (≈ 0.507 µM) | 0.06 µg/mL (≈ 0.0608 µM) | 128 µg/mL (≈ 130 µM) | 8 µg/mL (≈ 8.11 µM) | 28% | 8 µg/mL (≈ 8.11 µM) | 2 µg/mL (≈ 2.03 µM) | 8 µg/mL (≈ 8.11 µM) | 8 µg/mL (≈ 8.11 µM)
CCNC(=O)O[C@H]1[C@H](C)O[C@@H](O[C@H]2[C@H](N(C)C)[C@@H](O)[C@H](O[C@H]3[C@@H](CC=O)C[C@@H](C)[C@@H](O)CN(C)CCC[C@H](C/C=C/c4ccc5ccccc5c4)OC(=O)C[C@@H](OC(=O)CC)[C@@H]3OC)O[C@@H]2C)C[C@@]1(C)OC(=O)CC | 32 µg/mL (≈ 30.3 µM) | 16 µg/mL (≈ 15.1 µM) | 0.06 µg/mL (≈ 0.0568 µM) | 0.13 µg/mL (≈ 0.123 µM) | 0.13 µg/mL (≈ 0.123 µM) | 0.5 µg/mL (≈ 0.473 µM) | 32 µg/mL (≈ 30.3 µM) | 2 µg/mL (≈ 1.89 µM) | 0.25 µg/mL (≈ 0.237 µM) | 16 µg/mL (≈ 15.1 µM) | 32 µg/mL (≈ 30.3 µM) | 82% | 0.5 µg/mL (≈ 0.473 µM) | 16 µg/mL (≈ 15.1 µM) | 16 µg/mL (≈ 15.1 µM) | 0.5 µg/mL (≈ 0.473 µM)
CC[C@H]1OC(=O)[C@H](C)[C@@H](O[C@H]2C[C@@](C)(OC)[C@@H](O)[C@H](C)O2)[C@H](C)[C@@H](O[C@@H]2O[C@H](C)C[C@H](N(C)C)[C@H]2O)[C@](C)(OC)C[C@@H](C)C(=O)[C@H](C)[C@@H](O)[C@]1(C)O [CLARITHROMYCIN] | > 128 µg/mL | > 128 µg/mL | 0.03 µg/mL (≈ 0.0401 µM) | 1 µg/mL (≈ 1.34 µM) | 1 µg/mL (≈ 1.34 µM) | 8 µg/mL (≈ 10.7 µM) | > 128 µg/mL | 0.13 µg/mL (≈ 0.174 µM) | 0.03 µg/mL (≈ 0.0401 µM) | > 128 µg/mL | 8 µg/mL (≈ 10.7 µM) | – | > 128 µg/mL | 2 µg/mL (≈ 2.67 µM) | 8 µg/mL (≈ 10.7 µM) | > 128 µg/mL
CCC(=O)O[C@@H]1CC(=O)O[C@H](C)C/C=C/C=C/[C@H](OC(C)=O)[C@H](C)C[C@H](CC=O)[C@H](O[C@@H]2O[C@H](C)[C@@H](O[C@H]3C[C@@](C)(OC(C)=O)[C@@H](OC(=O)CC)[C@H](C)O3)[C@H](N(C)C)[C@H]2O)[C@H]1OC [MIOCAMYCIN] | > 128 µg/mL | > 128 µg/mL | 0.13 µg/mL (≈ 0.145 µM) | 0.25 µg/mL (≈ 0.278 µM) | 0.25 µg/mL (≈ 0.278 µM) | 0.5 µg/mL (≈ 0.557 µM) | > 128 µg/mL | 0.5 µg/mL (≈ 0.557 µM) | 0.13 µg/mL (≈ 0.145 µM) | > 128 µg/mL | 16 µg/mL (≈ 17.8 µM) | 5.1% | 4 µg/mL (≈ 4.45 µM) | 4 µg/mL (≈ 4.45 µM) | 16 µg/mL (≈ 17.8 µM) | 8 µg/mL (≈ 8.91 µM)
CCCC(=O)O[C@H]1[C@H](C)O[C@@H](O[C@H]2[C@H](N(C)C)[C@@H](O)[C@H](O[C@H]3[C@@H](CC=O)C[C@@H](C)[C@@H](O)/C=C/C=C/C[C@@H](C)OC(=O)C[C@@H](O)[C@@H]3OC)O[C@@H]2C)C[C@@]1(C)OC(=O)CC [ROKITAMYCIN] | > 128 µg/mL | > 128 µg/mL | 0.03 µg/mL (≈ 0.0362 µM) | 0.06 µg/mL (≈ 0.0725 µM) | 0.06 µg/mL (≈ 0.0725 µM) | 0.13 µg/mL (≈ 0.157 µM) | > 128 µg/mL | 0.13 µg/mL (≈ 0.157 µM) | 0.06 µg/mL (≈ 0.0725 µM) | > 128 µg/mL | 8 µg/mL (≈ 9.66 µM) | – | 1 µg/mL (≈ 1.21 µM) | 2 µg/mL (≈ 2.42 µM) | 8 µg/mL (≈ 9.66 µM) | 1 µg/mL (≈ 1.21 µM)
CC[C@H]1OC(=O)[C@H](C)C(=O)[C@H](C)[C@@H](O[C@@H]2O[C@H](C)C[C@H](N(C)C)[C@H]2O)[C@](C)(OC)C[C@@H](C)C(=O)[C@H](C)[C@H]2N(CCCCn3cnc(-c4cccnc4)c3)C(=O)O[C@]12C [TELITHROMYCIN] | 1 µg/mL (≈ 1.23 µM) | 16 µg/mL (≈ 19.7 µM) | < 0.008 µg/mL | 0.06 µg/mL (≈ 0.0739 µM) | 0.06 µg/mL (≈ 0.0739 µM) | 0.5 µg/mL (≈ 0.616 µM) | 1 µg/mL (≈ 1.23 µM) | 0.03 µg/mL (≈ 0.0369 µM) | < 0.008 µg/mL | 0.5 µg/mL (≈ 0.616 µM) | 1 µg/mL (≈ 1.23 µM) | 84% | 0.06 µg/mL (≈ 0.0739 µM) | 0.5 µg/mL (≈ 0.616 µM) | 2 µg/mL (≈ 2.46 µM) | 0.06 µg/mL (≈ 0.0739 µM)
